The supplement of paper PMC10307832

Tests used:
Test in all cases: relative viability (nuclei count vs DMSO), 5 days (fraction); higher = more cells survive
VE-821 + Foretinib = compound: CS(=O)(=O)c1ccc(-c2cnc(N)c(C(=O)Nc3ccccc3)n2)cc1 [VE-821] + COc1cc2c(Oc3ccc(NC(=O)C4(C(=O)Nc5ccc(F)cc5)CC4)cc3F)ccnc2cc1OCCCN1CCOCC1 [Foretinib] (partner 0.25 µM)
Summary of the method: (§1)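 One day after seeding in 1536-well plates, lung cancer cell lines were dosed by pin tool. Dosing was either single-drug or a fixed anchor-drug dose plus five library-drug doses (not always all listed) in √10 steps. After 5 days, nuclei were stained in one fix-and-stain step and counted on 4× images, and relative viability is the nuclei count of treated wells over that of vehicle wells, given as the median of duplicate plates.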

Vismodegib + Luminespib = compound: CS(=O)(=O)c1ccc(C(=O)Nc2ccc(Cl)c(-c3ccccn3)c2)c(Cl)c1 [Vismodegib] + CCNC(=O)c1noc(-c2cc(C(C)C)c(O)cc2O)c1-c1ccc(CN2CCOCC2)cc1 [Luminespib] (partner 0.01 µM)
Summary of the method: as §1

Vismodegib + Foretinib = compound: CS(=O)(=O)c1ccc(C(=O)Nc2ccc(Cl)c(-c3ccccn3)c2)c(Cl)c1 [Vismodegib] + COc1cc2c(Oc3ccc(NC(=O)C4(C(=O)Nc5ccc(F)cc5)CC4)cc3F)ccnc2cc1OCCCN1CCOCC1 [Foretinib] (partner 0.25 µM)
Summary of the method: as §1

Ruxolitinib + AZD7762 = compound: N#CC[C@H](C1CCCC1)n1cc(-c2ncnc3[nH]ccc23)cn1 [Ruxolitinib] + NC(=O)Nc1cc(-c2cccc(F)c2)sc1C(=O)N[C@H]1CCCNC1 [AZD7762] (partner 0.2 µM)
Summary of the method: as §1

Cell Line | relative viability (VE-821 + Foretinib; first compound 0.08 µM) | relative viability (VE-821 + Foretinib; first compound 0.253 µM) | relative viability (VE-821 + Foretinib; first compound 0.8 µM) | relative viability (VE-821 + Foretinib; first compound 2.53 µM) | relative viability (VE-821 + Foretinib; first compound 8 µM) | relative viability (Vismodegib + Luminespib; first compound 0.08 µM) | relative viability (Vismodegib + Luminespib; first compound 0.253 µM) | relative viability (Vismodegib + Luminespib; first compound 0.8 µM) | relative viability (Vismodegib + Luminespib; first compound 2.53 µM) | relative viability (Vismodegib + Luminespib; first compound 8 µM) | relative viability (Vismodegib + Foretinib; first compound 0.08 µM) | relative viability (Vismodegib + Foretinib; first compound 0.253 µM) | relative viability (Vismodegib + Foretinib; first compound 0.8 µM) | relative viability (Vismodegib + Foretinib; first compound 2.53 µM) | relative viability (Vismodegib + Foretinib; first compound 8 µM) | relative viability (Ruxolitinib + AZD7762; first compound 0.08 µM) | relative viability (Ruxolitinib + AZD7762; first compound 0.253 µM) | relative viability (Ruxolitinib + AZD7762; first compound 0.8 µM) | relative viability (Ruxolitinib + AZD7762; first compound 2.53 µM) | relative viability (Ruxolitinib + AZD7762; first compound 8 µM)
NCI-H1666 | 0.97 | 1.02 | 1.04 | 1.03 | 0.783 | 0.985 | 0.986 | 1.15 | 0.999 | 1.06 | 1.01 | 0.935 | 1.05 | 0.925 | 0.936 | 0.869 | 0.868 | 0.921 | 0.841 | 0.974
H3255 | 0.883 | 0.843 | 0.913 | 0.91 | 0.857 | 0.798 | 0.996 | 0.799 | 0.818 | 0.857 | 0.865 | 0.866 | 0.822 | 0.888 | 0.878 | 0.783 | 0.868 | 1.08 | 0.774 | 0.743
NCI-H1793 | 0.749 | 0.669 | 0.589 | 0.85 | 0.55 |  | 0.214 | 0.189 | 0.482 | 0.19 |  | 0.524 | 0.616 | 0.848 | 0.609 | 0.759 | 0.502 | 0.595 | 0.437 | 0.391
NCI-H1755 | 0.956 | 0.855 | 0.845 | 0.92 | 0.765 | 0.403 | 0.327 | 0.39 | 0.366 | 0.461 | 0.894 | 0.91 | 0.947 | 0.96 | 0.913 | 0.497 | 0.465 | 0.573 | 0.471 | 0.343
LOU-NH91 | 0.982 | 0.946 | 0.86 | 0.986 | 0.928 | 0.28 | 0.334 | 0.352 | 0.366 | 0.301 | 0.943 | 0.925 | 0.905 | 0.867 | 0.912 | 0.757 | 0.664 | 0.797 | 0.74 | 0.73
NCI-H1975 | 0.977 | 0.89 |  | 0.82 | 0.709 | 0.143 | 0.185 | 0.205 | 0.218 | 0.259 | 0.993 | 0.996 | 0.933 | 0.832 | 0.964 | 0.669 | 0.643 | 0.675 | 0.67 | 0.501
NCI-H727 | 1.27 | 0.982 | 0.823 | 0.789 | 0.405 | 0.428 | 0.518 | 0.322 | 0.359 | 0.422 | 0.973 | 0.867 | 0.896 | 0.761 | 0.792 | 0.701 | 0.461 | 0.587 | 0.8 | 0.979
CAL-12T | 1.27 | 1.09 | 1.01 | 0.976 | 0.92 | 0.531 | 0.366 | 0.436 | 0.503 | 0.575 | 1.08 | 1.06 | 1.05 | 1.06 | 1.16 | 0.623 | 0.688 | 0.694 | 0.732 | 0.608
NCI-H441 | 1.36 | 1.04 | 1.19 | 1.04 | 0.928 | 0.348 | 0.281 | 0.284 | 0.304 | 0.38 | 1.24 | 1.04 | 0.931 | 0.774 | 1.01 | 1.29 | 1.09 | 1.22 | 1.16 | 1.05
NCI-H1944 | 0.917 | 0.84 | 0.694 | 0.862 | 0.487 | 0.729 | 0.716 | 0.782 | 0.758 | 0.83 | 0.851 | 0.794 | 0.897 | 0.878 | 0.942 | 0.576 | 0.612 | 0.642 | 0.469 | 0.68
RERF-LC-KJ | 0.861 | 0.868 | 0.793 | 0.767 | 0.698 | 1.18 | 1.21 | 1.16 | 1.24 | 1.22 | 0.826 | 0.848 | 0.852 | 0.85 | 0.821 | 0.949 |  | 1 | 0.98 | 1.01
NCI-H838 | 1.21 | 0.946 | 0.892 | 1.13 | 0.877 | 0.247 | 0.271 | 0.33 | 0.409 | 0.331 | 0.987 | 0.979 | 0.997 | 1.06 | 1.03 | 0.925 | 0.874 | 0.87 | 0.776 | 0.721
